Assay results published in patent US20220167618A1, “PESTICIDALLY ACTIVE AZOLE-AMIDE COMPOUNDS” (SYNGENTA CROP PROTECTION AG, priority 2019, published 2022).

Assays:
Type in all cases: in vivo
[1] = system: Diabrotica balteata (Corn Root Worm); assay: Example B1: Diabrotica balteata (corn root worm), sprayed maize sprouts; details: 96 h, application rate 200 ppm, L2 larvae, 4 days after infestation, read-out: control in at least one of the two categories (mortality or growth inhibition)
Procedure: Example B1: Diabrotica balteata (Corn Root Worm)
Maize sprouts placed onto an agar layer in 24-well microtiter plates were treated with aqueous test solutions prepared from 10′000 ppm DMSO stock solutions by spraying. After drying, the plates were infested with L2 larvae (6 to 10 per well). The samples were assessed for mortality and growth inhibition in comparison to untreated samples 4 days after infestation.

[2] = system: Chilo suppressalis (Striped Rice Stemborer); assay: Example B4: Chilo suppressalis (striped rice stemborer), artificial diet; details: 144 h, application rate 200 ppm, L2 larvae, 6 days after infestation, read-out: control in at least one of the three categories (mortality, anti-feedant or growth inhibition)
Procedure: Example B4: Chilo suppressalis (Striped Rice Stemborer)
24-well microtiter plates with artificial diet were treated with aqueous test solutions prepared from 10′000 ppm DMSO stock solutions by pipetting. After drying, the plates were infested with L2 larvae (6-8 per well). The samples were assessed for mortality, anti-feeding effect, and growth inhibition in comparison to untreated samples 6 days after infestation. Control of Chilo suppressalis by a test sample is given when at least one of the categories mortality, anti-feedant effect, and growth inhibition is higher than the untreated sample.

[3] = system: Plutella xylostella (Diamond Back Moth); assay: Example B5: Plutella xylostella (diamond back moth), artificial diet, 24-well; details: 192 h, application rate 200 ppm, eggs, 8 days after infestation, read-out: control in at least one of the two categories (mortality or growth inhibition)
Procedure: Example B5: Plutella xylostella (Diamond Back Moth)
24-well microtiter plates with artificial diet were treated with aqueous test solutions prepared from 10′000 ppm DMSO stock solutions by pipetting. After drying, Plutella eggs were pipetted through a plastic stencil onto a gel blotting paper and the plate was closed with it. The samples were assessed for mortality and growth inhibition in comparison to untreated samples 8 days after infestation.

[4] = system: Spodoptera littoralis (Egyptian Cotton Leaf Worm); assay: Example B9: Spodoptera littoralis (Egyptian cotton leaf worm), sprayed cotton leaf discs; details: foliar, 72 h, application rate 200 ppm, L1 larvae, 3 days after infestation, read-out: control in at least one of the three categories (mortality, anto-feedant or growth inhibition)

CC(NC(=O)c1cc(C(F)(F)F)nc(C2(C#N)CC2)c1)c1nc(Br)nn1-c1ccc(C#N)cn1 (stereo not drawn) [Compound P2, N-[1-[5-bromo-2-(5-cyano-2-pyridyl)-1,2,4-triazol-3-yl]ethyl]-2-(1-cyanocyclopropyl)-6-(trifluoromethyl)pyridine-4-carboxamide]
≥ 80%: percent control (mortality or growth inhibition) at 200 ppm [1] | percent control (mortality, anti-feedant or growth inhibition) at 200 ppm [2] | percent control (mortality or growth inhibition) at 200 ppm [3] | percent control (mortality, anti-feedant or growth inhibition) at 200 ppm [4]

CC(NC(=O)c1cc(C(F)(F)F)cc(C2(C#N)CC2)c1)c1nc(Br)nn1-c1ncc(OCC(F)F)cn1 (stereo not drawn) [Compound P3, N-[1-[5-bromo-2-[5-(2,2-difluoroethoxy)pyrimidin-2-yl]-1,2,4-triazol-3-yl]ethyl]-3-(1-cyanocyclopropyl)-5-(trifluoromethyl)benzamide]
≥ 80%: percent control (mortality or growth inhibition) at 200 ppm [1] | percent control (mortality, anti-feedant or growth inhibition) at 200 ppm [2] | percent control (mortality or growth inhibition) at 200 ppm [3] | percent control (mortality, anti-feedant or growth inhibition) at 200 ppm [4]

CC(NC(=O)c1cc(C(F)(F)F)cc(C(F)(F)C2CC2)c1)c1nc(Br)nn1-c1ncc(OCC(F)(F)F)cn1 (stereo not drawn) [Compound P9, N-[1-[5-bromo-2-[5-(2,2,2-trifluoroethoxy)pyrimidin-2-yl]-1,2,4-triazol-3-yl]ethyl]-3-[cyclopropyl(difluoro)methyl]-5-(trifluoromethyl)benzamide]
≥ 80%: percent control (mortality, anti-feedant or growth inhibition) at 200 ppm [2] | percent control (mortality or growth inhibition) at 200 ppm [3] | percent control (mortality, anti-feedant or growth inhibition) at 200 ppm [4]

CC(NC(=O)c1cc(C(F)(F)F)cc(C2(C#N)CC2)c1)c1nc(Br)nn1-c1ncc(OCC(F)(F)F)cn1 (stereo not drawn) [Compound P10, N-[1-[5-bromo-2-[5-(2,2,2-trifluoroethoxy)pyrimidin-2-yl]-1,2,4-triazol-3-yl]ethyl]-3-(1-cyanocyclopropyl)-5-(trifluoromethyl)benzamide]
≥ 80%: percent control (mortality or growth inhibition) at 200 ppm [1] | percent control (mortality, anti-feedant or growth inhibition) at 200 ppm [2] | percent control (mortality or growth inhibition) at 200 ppm [3] | percent control (mortality, anti-feedant or growth inhibition) at 200 ppm [4]

CC(NC(=O)c1cc(C2CC2C(F)(F)F)cc(C(F)(F)F)c1)c1nc(Br)nn1-c1ncc(OCC(F)F)cn1 (stereo not drawn) [Compound P13, N-[1-[5-bromo-2-[5-(2,2-difluoroethoxy)pyrimidin-2-yl]-1,2,4-triazol-3-yl]ethyl]-3-(trifluoromethyl)-5-[2-(trifluoromethyl)cyclopropyl]benzamide]
≥ 80%: percent control (mortality or growth inhibition) at 200 ppm [1] | percent control (mortality, anti-feedant or growth inhibition) at 200 ppm [2] | percent control (mortality or growth inhibition) at 200 ppm [3] | percent control (mortality, anti-feedant or growth inhibition) at 200 ppm [4]

CC(NC(=O)c1cc(C(F)(F)F)cc(C(F)(F)C2CC2)c1)c1nc(Br)nn1-c1ncc(OCC(F)F)cn1 (stereo not drawn) [Compound P15, N-[1-[5-bromo-2-[5-(2,2-difluoroethoxy)pyrimidin-2-yl]-1,2,4-triazol-3-yl]ethyl]-3-[cyclopropyl(difluoro)methyl]-5-(trifluoromethyl)benzamide]
≥ 80%: percent control (mortality or growth inhibition) at 200 ppm [1] | percent control (mortality, anti-feedant or growth inhibition) at 200 ppm [2] | percent control (mortality or growth inhibition) at 200 ppm [3] | percent control (mortality, anti-feedant or growth inhibition) at 200 ppm [4]

CC(NC(=O)c1cc(C2CC2C(F)(F)F)cc(C(F)(F)F)c1)c1nc(Br)nn1-c1ccc(C#N)cn1 (stereo not drawn) [Compound P16, N-[1-[5-bromo-2-(5-cyano-2-pyridyl)-1,2,4-triazol-3-yl]ethyl]-3-(trifluoromethyl)-5-[2-(trifluoromethyl)cyclopropyl]benzamide]
≥ 80%: percent control (mortality or growth inhibition) at 200 ppm [1] | percent control (mortality, anti-feedant or growth inhibition) at 200 ppm [2] | percent control (mortality or growth inhibition) at 200 ppm [3] | percent control (mortality, anti-feedant or growth inhibition) at 200 ppm [4]

CC(NC(=O)c1cc(C(F)(F)F)cc(S(=O)(=O)C(F)(F)F)c1)c1nc(Br)nn1-c1ccc(C#N)cn1 (stereo not drawn) [Compound P17, N-[1-[5-bromo-2-(5-cyano-2-pyridyl)-1,2,4-triazol-3-yl]ethyl]-3-(trifluoromethyl)-5-(trifluoromethylsulfonyl)benzamide]
≥ 80%: percent control (mortality or growth inhibition) at 200 ppm [1] | percent control (mortality, anti-feedant or growth inhibition) at 200 ppm [2] | percent control (mortality or growth inhibition) at 200 ppm [3] | percent control (mortality, anti-feedant or growth inhibition) at 200 ppm [4]

CC(NC(=O)c1cc(C2CC2)cc(C(F)(F)F)c1)c1nc(Br)nn1-c1ccc(C#N)cn1 (stereo not drawn) [Compound P19, N-[1-[5-bromo-2-(5-cyano-2-pyridyl)-1,2,4-triazol-3-yl]ethyl]-3-cyclopropyl-5-(trifluoromethyl)benzamide]
≥ 80%: percent control (mortality or growth inhibition) at 200 ppm [1] | percent control (mortality, anti-feedant or growth inhibition) at 200 ppm [2] | percent control (mortality or growth inhibition) at 200 ppm [3] | percent control (mortality, anti-feedant or growth inhibition) at 200 ppm [4]

CC(NC(=O)c1cc(C2CC2)nc(C(F)(F)F)c1)c1nc(Br)nn1-c1ccc(C#N)cn1 (stereo not drawn) [Compound P20, N-[1-[5-bromo-2-(5-cyano-2-pyridyl)-1,2,4-triazol-3-yl]ethyl]-2-cyclopropyl-6-(trifluoromethyl)pyridine-4-carboxamide]
≥ 80%: percent control (mortality or growth inhibition) at 200 ppm [1] | percent control (mortality, anti-feedant or growth inhibition) at 200 ppm [2] | percent control (mortality or growth inhibition) at 200 ppm [3] | percent control (mortality, anti-feedant or growth inhibition) at 200 ppm [4]

CC(NC(=O)c1cc(C(F)(F)F)cc(C2(C#N)CC2)c1)c1nc(Br)nn1-c1ccc(OCC(F)(F)F)cn1 (stereo not drawn) [Compound P23, N-[1-[5-bromo-2-[5-(2,2,2-trifluoroethoxy)-2-pyridyl]-1,2,4-triazol-3-yl]ethyl]-3-(1-cyanocyclopropyl)-5-(trifluoromethyl)benzamide]
≥ 80%: percent control (mortality, anti-feedant or growth inhibition) at 200 ppm [2] | percent control (mortality or growth inhibition) at 200 ppm [3] | percent control (mortality, anti-feedant or growth inhibition) at 200 ppm [4]

CC(NC(=O)c1cc(C2CC2)cc(C(F)(F)F)c1)c1nc(Br)nn1-c1ccc(OCC(F)(F)F)cn1 (stereo not drawn) [Compound P28, N-[1-[5-bromo-2-[5-(2,2,2-trifluoroethoxy)-2-pyridyl]-1,2,4-triazol-3-yl]ethyl]-3-cyclopropyl-5-(trifluoromethyl)benzamide]
≥ 80%: percent control (mortality, anti-feedant or growth inhibition) at 200 ppm [2] | percent control (mortality or growth inhibition) at 200 ppm [3]

CC(NC(=O)c1cc(C2CC2(F)F)cc(C(F)(F)F)c1)c1nc(Br)nn1-c1ccc(OCC(F)(F)F)cn1 (stereo not drawn) [Compound P29, N-[1-[5-bromo-2-[5-(2,2,2-trifluoroethoxy)-2-pyridyl]-1,2,4-triazol-3-yl]ethyl]-3-(2,2-difluorocyclopropyl)-5-(trifluoromethyl)benzamide]
≥ 80%: percent control (mortality, anti-feedant or growth inhibition) at 200 ppm [2] | percent control (mortality or growth inhibition) at 200 ppm [3]

CC(NC(=O)c1cc(C(F)(F)F)cc(C(C)(C)C#N)c1)c1nc(Br)nn1-c1ccc(OCC(F)(F)F)cn1 (stereo not drawn) [Compound P41, N-[1-[5-bromo-2-[5-(2,2,2-trifluoroethoxy)-2-pyridyl]-1,2,4-triazol-3-yl]ethyl]-3-(1-cyano-1-methyl-ethyl)-5-(trifluoromethyl)benzamide]
≥ 80%: percent control (mortality, anti-feedant or growth inhibition) at 200 ppm [2] | percent control (mortality or growth inhibition) at 200 ppm [3]
